Columns and labels:
[1] = system: Botrytis cinerea; assay: Test E: tomato Botrytis, spray on tomato seedlings, disease control rating; type: in vivo; conditions: 100 = 100% disease control, 0 = no disease control relative to the controls; for pest or weed control at 250 ppm: Rate 250 ppm; for pest or weed control at 10 ppm: Rate 10 ppm
Text: (§1) General protocol for preparing test suspensions for Tests A-F: the test compounds were first dissolved in acetone in an amount equal to 3% of the final volume and then suspended at the desired concentration (in ppm) in acetone and purified water (50/50 mix by volume) containing 250 ppm of the surfactant PEG400 (polyhydric alcohol esters). The resulting test suspensions were then used in Tests A-F.
The test suspension was sprayed to the point of run-off on tomato seedlings. The following day the seedlings were inoculated with a spore suspension of Botrytis cinerea (the causal agent of tomato Botrytis) and incubated in a saturated atmosphere at 20° C. for 48 h, and then moved to a growth chamber at 24° C. for 3 days, after which time visual disease ratings were made.
(§2) A rating of 100 indicates 100% disease control and a rating of 0 indicates no disease control (relative to the controls). A dash (-) indicates the compound was not tested.

[2] = system: Phakopsora pachyrhizi; assay: Test D: Asian soybean rust, spray on soybean seedlings, disease control rating; type: in vivo; conditions: Phakopsora pachyrhizi, 216 h, 100 = 100% disease control, 0 = no disease control relative to the controls; for pest or weed control at 250 ppm: Rate 250 ppm; for pest or weed control at 10 ppm: Rate 10 ppm
Procedure, shortened: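 Soybean seedlings sprayed to run-off with compound suspension (ppm, in 50/50 acetone/water with 250 ppm PEG400), inoculated next day with P. pachyrhizi spores, held 24 h saturated at 22°C then 8 days at 22°C. Visual rating 0-100% disease control relative to controls.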

[3] = system: Puccinia recondita f. sp. tritici; assay: Test B: wheat leaf rust, spray on wheat seedlings, disease control rating; type: in vivo; conditions: Puccinia recondita, 192 h, 100 = 100% disease control, 0 = no disease control relative to the controls; for pest or weed control at 250 ppm: Rate 250 ppm; for pest or weed control at 10 ppm: Rate 10 ppm
Procedure, shortened: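 Compound in acetone (3% of final volume) was suspended at the stated ppm in acetone/water 50/50 with 250 ppm PEG400 and sprayed to run-off on wheat seedlings. Puccinia recondita spores were inoculated next day, then 24 h saturated atmosphere at 20 °C and 7 days at 20 °C. Rated 0–100% disease control versus controls.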

[4] = system: Zymoseptoria tritici; assay: Test A: wheat leaf blotch, spray on wheat seedlings, disease control rating; type: in vivo; conditions: 100 = 100% disease control, 0 = no disease control relative to the controls; for pest or weed control at 250 ppm: Rate 250 ppm; for pest or weed control at 10 ppm: Rate 10 ppm
Text: as §1
The test solution was sprayed to the point of run-off on wheat seedlings. The following day the seedlings were inoculated with a spore suspension of Zymoseptoria tritici (the causal agent of wheat leaf blotch) and incubated in a saturated atmosphere at 24° C. for 48 h, and then moved to a growth chamber at 20° C. for 17 days, after which time disease ratings were made.
as §2

[5] = system: Blumeria graminis f. sp. tritici; assay: Test C: wheat powdery mildew, spray on wheat seedlings, disease control rating; type: in vivo; conditions: 192 h, 100 = 100% disease control, 0 = no disease control relative to the controls; for pest or weed control at 250 ppm: Rate 250 ppm; for pest or weed control at 10 ppm: Rate 10 ppm
Text: as §1
The test suspension was sprayed to the point of run-off on wheat seedlings. The following day the seedlings were inoculated with a spore dust of Blumeria graminis f. sp. tritici, (also known as Erysiphe graminis f. sp. tritici, the causal agent of wheat powdery mildew) and incubated in a growth chamber at 20° C. for 8 days, after which time visual disease ratings were made.
as §2

Row | SMILES | melting point [°C] | pest or weed control at 250 ppm [1] [%] | pest or weed control at 250 ppm [2] [%] | pest or weed control at 250 ppm [3] [%] | pest or weed control at 250 ppm [4] [%] | pest or weed control at 250 ppm [5] [%] | pest or weed control at 10 ppm [1] [%] | pest or weed control at 10 ppm [2] [%] | pest or weed control at 10 ppm [3] [%] | pest or weed control at 10 ppm [4] [%] | pest or weed control at 10 ppm [5] [%]
1 | COC(=O)NCc1cc(-c2ccn(-c3c(F)cc(C(F)(F)F)cc3F)n2)ccc1C [Compound 64, methyl N-[[5-[1-[2,6-difluoro-4-(trifluoromethyl)phenyl]-1H-pyrazol-3-yl]-2-methylphenyl]methyl]carbamate] | 106 to 108 | – | – | – | – | – | 0 | 100 | 100 | 0 | 89
2 | COC(=O)NCc1cc(-c2ccn(-c3c(F)cc(OC)cc3F)n2)ccc1C [Compound 3, methyl N-[[5-[1-(2,6-difluoro-4-methoxyphenyl)-1H-pyrazol-3-yl]-2-methylphenyl]methyl]carbamate] | – | – | – | – | – | – | 45 | 100 | 100 | 50 | 79
3 | COC(=O)NCc1cc(-c2ccn(-c3c(F)cc([N+](=O)[O-])cc3F)n2)ccc1C [Compound 1, methyl N-[[5-[1-(2,6-difluoro-4-nitrophenyl)-1H-pyrazol-3-yl]-2-methylphenyl]methyl]carbamate] | – | – | – | – | – | – | 0 | 44 | 68 | 0 | 0
4 | COC(=O)NCc1cc(-c2cnn(-c3c(F)cc([N+](=O)[O-])cc3F)n2)ccc1C [Compound 118, methyl N-[[5-[2-(2,6-difluoro-4-nitrophenyl)-2H-1,2,3-triazol-4-yl]-2-methylphenyl]methyl]carbamate] | – | 0 | 0 | 0 | 1 | 0 | – | – | – | – | –
5 | COC(=O)NCc1cc(-c2cnn(-c3c(F)cc(C)cc3F)n2)ccc1C [Compound 111] | 117 to 121 | – | – | – | – | – | – | 100 | 99 | – | –
6 | COC(=O)NCc1cc(-c2cnn(-c3c(F)cc(I)cc3F)n2)ccc1C [Compound 116] | 154 to 158 | – | – | – | – | – | – | 100 | 100 | – | –
7 | COC(=O)NCc1cc(-c2ccn(-c3c(F)cc(C(C)C)cc3F)n2)ccc1C [Compound 63, methyl N-[[5-[1-[2,6-difluoro-4-(1-methylethyl)phenyl]-1H-pyrazol-3-yl]-2-methylphenyl]methyl]carbamate] | – | – | – | – | – | – | 0 | 100 | 100 | 26 | 98
8 | COC(=O)NCc1cc(-c2ncn(-c3c(F)cc(C(F)(F)F)cc3F)n2)ccc1C [Compound 103] | 168 to 172 | – | – | – | – | – | – | 86 | 100 | – | –
9 | COC(=O)NCc1cc(-c2cc(C)n(-c3c(Cl)cccc3Cl)n2)ccc1C [Compound 101] | 146 to 150 | – | – | – | – | – | – | 0 | 0 | – | –
10 | CCOc1cc(F)c(-n2ccc(-c3ccc(C)c(CNC(=O)OC)c3)n2)c(F)c1 [Compound 11, methyl N-[[5-[1-(4-ethoxy-2,6-difluorophenyl)-1H-pyrazol-3-yl]-2-methylphenyl]methyl]carbamate] | 118 to 119 | – | – | – | – | – | – | 100 | 100 | – | –
11 | COC(=O)NCc1cc(-c2cn(-c3c(Br)cc(OC)cc3Br)nn2)ccc1C [Compound 128] | 167 to 171 | – | – | – | – | – | – | 0 | 0 | – | –
12 | COC(=O)NCc1cc(-c2cn(-c3c(Cl)cc(OC)cc3OC)nn2)ccc1C [Compound 120] | 145 to 148 | – | – | – | – | – | – | 0 | 0 | – | –
13 | COC(=O)NCc1cc(-c2ccn(-c3c(F)cc(OC4CCC4)cc3F)n2)ccc1C [Compound 13, methyl N-[[5-[1-[4-(cyclobutyloxy)-2,6-difluorophenyl]-1H-pyrazol-3-yl]-2-methylphenyl]methyl]carbamate] | 126 to 128 | – | – | – | – | – | – | 100 | 100 | – | –

Second part, led by results:

Row | melting point [°C] | SMILES | pest or weed control at 250 ppm [1] [%] | pest or weed control at 250 ppm [2] [%] | pest or weed control at 250 ppm [3] [%] | pest or weed control at 250 ppm [4] [%] | pest or weed control at 250 ppm [5] [%] | pest or weed control at 10 ppm [1] [%] | pest or weed control at 10 ppm [2] [%] | pest or weed control at 10 ppm [3] [%] | pest or weed control at 10 ppm [4] [%] | pest or weed control at 10 ppm [5] [%]
14 | 179 to 183 | COC(=O)NCc1cc(-c2ncn(-c3c(F)cc([N+](=O)[O-])cc3F)n2)ccc1C [Compound 107] | 0 | 0 | 80 | 28 | 43 | – | – | – | – | –
15 | 102 to 103 | COC(=O)NCc1cc(-c2ccn(-c3c(F)cc(OC(F)F)cc3F)n2)ccc1C [Compound 15, methyl N-[[5-[1-[4-(difluoromethoxy)-2,6-difluorophenyl]-1H-pyrazol-3-yl]-2-methylphenyl]methyl]carbamate] | – | – | – | – | – | 0 | 100 | 99 | 0 | 69
16 | 148 to 149 | COC(=O)NCc1cc(-c2ccn(-c3c(F)cc(Cl)cc3F)n2)ccc1C [Compound 6, methyl N-[[5-[1-(4-chloro-2,6-difluorophenyl)-1H-pyrazol-3-yl]-2-methylphenyl]methyl]carbamate] | – | – | – | – | – | 0 | 100 | 98 | 7 | 0
17 | 175 to 179 | COC(=O)NCc1cc(-c2ncn(-c3c(F)cc(Br)cc3F)n2)ccc1C [Compound 104] | – | – | – | – | – | – | 90 | 100 | – | –
18 | 128 to 132 | COC(=O)NCc1cc(-c2cc(C)n(-c3c(F)cc(OC)cc3F)n2)ccc1C [Compound 102] | – | – | – | – | – | – | 0 | 0 | – | –
19 | 171 to 174 | COC(=O)NCc1cc(-c2ccn(-c3c(F)cc(C#N)cc3F)n2)ccc1C [Compound 2] | – | – | – | – | – | 0 | 100 | 68 | 13 | 0
20 | 148 to 152 | COC(=O)NCc1cc(-c2cn(-c3c(Cl)cc(OC)cc3Cl)nn2)ccc1C [Compound 123] | – | – | – | – | – | – | 0 | 0 | – | –
21 | 125 to 129 | COC(=O)NCc1cc(-c2cn(-c3c(F)cc(F)cc3Cl)nn2)ccc1C [Compound 122] | 0 | 100 | 99 | 71 | 0 | – | – | – | – | –
22 | 107 to 111 | COC(=O)NCc1cc(-c2cnn(-c3c(F)cc(C4CC4)cc3F)n2)ccc1C [Compound 113] | – | – | – | – | – | – | 100 | 100 | – | –
23 | 124 to 128 | COC(=O)NCc1cc(-c2ccn(-c3c(F)cc(OC4CC4)cc3F)n2)ccc1C [Compound 66, methyl N-[[5-[1-[4-(cyclopropyloxy)-2,6-difluorophenyl]-1H-pyrazol-3-yl]-2-methylphenyl]methyl]carbamate] | – | – | – | – | – | – | 100 | 100 | – | –
24 | 143 to 147 | COC(=O)NCc1cc(-c2cn(-c3c(F)cc(C)cc3F)nn2)ccc1C [Compound 119] | – | – | – | – | – | – | 0 | 100 | – | –
25 | 125 to 129 | COC(=O)NCc1cc(-c2cc(C)n(-c3c(F)cccc3F)n2)ccc1C [Compound 100] | – | – | – | – | – | – | 0 | 0 | – | –
26 | 159 to 163 | COC(=O)NCc1cc(-c2cn(-c3c(F)cc(Cl)cc3F)nn2)ccc1C [Compound 121, methyl N-[[5-[1-(4-chloro-2,6-difluorophenyl)-1H-1,2,3-triazol-4-yl]-2-methylphenyl]methyl]carbamate] | – | – | – | – | – | – | 0 | 68 | – | –
